According to the NIST ThermoML archive (doi:10.1021/je700260f):

Details: 303.15 K, Liquid, Vibrating tube method

FC(C(F)(F)F)C(F)(F)F [1,1,1,2,3,3,3-heptafluoropropane]
Details | mass density [kg/m3]
23528 kPa | 1493.1
23717 kPa | 1493.9
23749 kPa | 1494.1
23780 kPa | 1494.1
23812 kPa | 1494.2
23848 kPa | 1494.4
23884 kPa | 1494.5
23911 kPa | 1494.7
23938 kPa | 1494.6
23969 kPa | 1494.8
24001 kPa | 1494.9
24032 kPa | 1495.2
24063 kPa | 1495.2
24107 kPa | 1495.5
24143 kPa | 1495.5
24178 kPa | 1495.8
24209 kPa | 1495.8
24240 kPa | 1495.8
24271 kPa | 1496.1
24303 kPa | 1496.1
24338 kPa | 1496.2
24370 kPa | 1496.4
24397 kPa | 1496.4
24429 kPa | 1496.6
24461 kPa | 1496.8
24496 kPa | 1496.7
24528 kPa | 1497
24559 kPa | 1497.1
24590 kPa | 1497.1
24626 kPa | 1497.4
24654 kPa | 1497.4
24682 kPa | 1497.4
24714 kPa | 1497.6
24750 kPa | 1497.8
24778 kPa | 1497.8
24809 kPa | 1497.9
24844 kPa | 1498.2
24868 kPa | 1498.2
24901 kPa | 1498.4
24928 kPa | 1498.3
24952 kPa | 1498.5
24987 kPa | 1498.7
25022 kPa | 1498.7
25049 kPa | 1498.9
25077 kPa | 1498.9
25110 kPa | 1499.1
25135 kPa | 1499.1
25167 kPa | 1499.3
25195 kPa | 1499.1
25223 kPa | 1499.5
25247 kPa | 1499.5
25287 kPa | 1499.7
25310 kPa | 1499.8
25346 kPa | 1499.9
25370 kPa | 1499.9
25411 kPa | 1500.1
25443 kPa | 1500.1
25467 kPa | 1500.4
25503 kPa | 1500.4
25528 kPa | 1500.5
25561 kPa | 1500.7
25602 kPa | 1500.8
25630 kPa | 1501
25658 kPa | 1501.1
25686 kPa | 1501
25715 kPa | 1501.2
25740 kPa | 1501.3
25774 kPa | 1501.4
25801 kPa | 1501.6
25837 kPa | 1501.5
25858 kPa | 1501.5
25891 kPa | 1501.9
25911 kPa | 1501.9
25944 kPa | 1502
25972 kPa | 1502.1
26000 kPa | 1502.2
26025 kPa | 1502.4
26056 kPa | 1502.4
26076 kPa | 1502.6
26109 kPa | 1502.6
26134 kPa | 1502.8
26158 kPa | 1502.9
26191 kPa | 1502.9
26216 kPa | 1502.9
26252 kPa | 1503
26284 kPa | 1503.3
26307 kPa | 1503.3
26336 kPa | 1503.4
26361 kPa | 1503.5
26394 kPa | 1503.6
26418 kPa | 1503.8
26512 kPa | 1503.9
26545 kPa | 1504.1
26714 kPa | 1504.6
26743 kPa | 1504.8
26776 kPa | 1504.9
26801 kPa | 1505.1
26834 kPa | 1505.2
26858 kPa | 1505.2
26891 kPa | 1505.3
26924 kPa | 1505.5
26948 kPa | 1505.5
26981 kPa | 1505.7
27006 kPa | 1505.7
27035 kPa | 1505.9
27060 kPa | 1506
27246 kPa | 1506.5
27275 kPa | 1506.7
27304 kPa | 1506.8
27334 kPa | 1506.8
27368 kPa | 1507.1
27464 kPa | 1507.4
28427 kPa | 1510.7
28456 kPa | 1510.8
28486 kPa | 1510.9
28516 kPa | 1510.9
28541 kPa | 1511.1
28576 kPa | 1511.2
28601 kPa | 1511.3
28636 kPa | 1511.4
28661 kPa | 1511.3
28700 kPa | 1511.5
28729 kPa | 1511.7
28768 kPa | 1511.7
28793 kPa | 1511.8
28832 kPa | 1512
28858 kPa | 1512.2
28893 kPa | 1512.3
28924 kPa | 1512.3
28967 kPa | 1512.6
28997 kPa | 1512.6
29020 kPa | 1512.7
29047 kPa | 1512.7
29074 kPa | 1512.8
29113 kPa | 1513
29139 kPa | 1513
29169 kPa | 1513
29196 kPa | 1513.3
29235 kPa | 1513.4
29267 kPa | 1513.4
29298 kPa | 1513.6
29323 kPa | 1513.6
29349 kPa | 1513.7
29389 kPa | 1513.9
29429 kPa | 1514.1
29461 kPa | 1514.1
29492 kPa | 1514.2
29527 kPa | 1514.4
29554 kPa | 1514.5
29584 kPa | 1514.6
29614 kPa | 1514.7
29645 kPa | 1514.6
29676 kPa | 1514.8
29706 kPa | 1515
29746 kPa | 1515
29773 kPa | 1515.3
29800 kPa | 1515.3
29831 kPa | 1515.3
29866 kPa | 1515.5
29892 kPa | 1515.6
29927 kPa | 1515.6
29953 kPa | 1515.7
29984 kPa | 1515.8
30015 kPa | 1516
30043 kPa | 1516.2
30079 kPa | 1516.2
30110 kPa | 1516.3
30145 kPa | 1516.4
30176 kPa | 1516.5
30211 kPa | 1516.5
30247 kPa | 1516.7
30277 kPa | 1516.8
30316 kPa | 1516.9
30341 kPa | 1516.9
30376 kPa | 1517.1
30406 kPa | 1517.2
30437 kPa | 1517.3
30464 kPa | 1517.4
30502 kPa | 1517.5
30529 kPa | 1517.6
30561 kPa | 1517.7
30597 kPa | 1517.8
30619 kPa | 1518
30655 kPa | 1518.1
30678 kPa | 1518.1
30713 kPa | 1518.1
30735 kPa | 1518.4
30769 kPa | 1518.4
30805 kPa | 1518.6
30842 kPa | 1518.6
30873 kPa | 1518.8
30910 kPa | 1518.8
30945 kPa | 1518.9
30977 kPa | 1519.1
31009 kPa | 1519
31044 kPa | 1519.2
31076 kPa | 1519.4
31117 kPa | 1519.6
31149 kPa | 1519.7
31186 kPa | 1519.7
31223 kPa | 1519.8
31256 kPa | 1519.8
31292 kPa | 1519.9
31319 kPa | 1520.1
31351 kPa | 1520.3
